Results taken from patent publication US9708639B2, “Method for quantifying amino acids with pyrophosphate” (TOYAMA PREFECTURE, priority 2012, dated 2017).

Experiments:
Experiment in all cases: Qualitative test of AARS substrate specificity (molybdenum blue method)
Format in all cases: biochemical, Thermotoga maritima MSB8 strain
Set-up in all cases: key: +: Activity was detected; −: Activity was not detected
[1] = target: T1, Thermotoga-derived CysRS (Thermotoga maritima, UniProt Q9WZH8); settings: Tyr 1 mM, other amino acids 5 mM; hydroxylamine 1000 mM; CysRS 0.3 mg/ml (8 mU/ml); 30° C.
T1 construct: The amplification products were each inserted into pET-28a to obtain plasmids for expression of respective AARSs; His tag (C); made in house; host or cells: Escherichia coli BL21 (DE3)
T1 sequence (Q9WZH8 1-460): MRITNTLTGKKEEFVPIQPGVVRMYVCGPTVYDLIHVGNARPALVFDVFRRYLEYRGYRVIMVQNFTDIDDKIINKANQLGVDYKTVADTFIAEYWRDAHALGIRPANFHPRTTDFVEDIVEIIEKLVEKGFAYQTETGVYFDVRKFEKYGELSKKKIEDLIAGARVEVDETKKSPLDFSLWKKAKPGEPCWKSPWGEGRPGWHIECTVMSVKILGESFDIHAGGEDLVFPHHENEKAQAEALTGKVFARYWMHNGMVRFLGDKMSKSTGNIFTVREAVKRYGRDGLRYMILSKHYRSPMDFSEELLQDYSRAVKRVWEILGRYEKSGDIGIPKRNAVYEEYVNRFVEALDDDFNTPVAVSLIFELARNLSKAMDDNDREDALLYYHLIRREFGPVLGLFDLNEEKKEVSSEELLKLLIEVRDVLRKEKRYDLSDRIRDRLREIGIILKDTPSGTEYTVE
Procedure: (§1) A test sample containing an amino acid as the measurement subject and a reaction mixture for quantifying amino acid having the following composition were mixed. The mixture was left standing at 30° C. to allow the AARS reaction to advance. The mixture in a volume of 33 μl, 66 μl of water, and 1 μl of a 300 U/ml yeast pyrophosphatase solution were mixed, and left standing at room temperature for 20 minutes to allow the pyrophosphatase reaction to advance. Then, the reaction mixture was mixed with 100 μl of a color development solution A and 30 μl of a color developing solution B having the following compositions, then the mixture was left standing at room temperature for 5 minutes, and the absorbance was measured at 700 nm or 900 nm with a microplate reader.
(§2) Reaction mixture for quantifying amino acid: 20 mM Tris-HCl (pH 7.0), 5 mM MgCl2, 2 mM ATP, and AARS (concentrations are final concentrations obtained after mixing with test sample)
(§3) Color developing solution A: A solution obtained by mixing water and concentrated sulfuric acid at a ratio of 3:1 and dissolving (NH4)6Mo7O24.4H2O in the mixture at a concentration of 0.066 g/ml
(§4) Color developing solution B: A solution obtained by mixing water and concentrated sulfuric acid at a ratio of 10000:7 and dissolving FeSO4.7H2O in the mixture at a concentration of 145 mg/ml
(§5) Presence or absence of pyrophosphate generation was verified for the Thermotoga-derived CysRS, HisRS, LysRS, ProRS, SerRS, TrpRS, and TyrRS by using the AARS activity measurement method described in 9. and standard solutions of the various amino acids as test samples. AARSs were added to the reaction mixture at final concentrations of 0.3 (8 mU/ml), 0.1, 0.2 (3 mU/ml), 0.2, 0.1 (1 mU/ml), 0.1, 0.2 (20 mU/ml) mg/ml, respectively. The reaction mixtures were prepared so that the final concentration of Tyr was 1 mM, and the final concentrations of the other amino acids were 5 mM. As for the hydroxylamine concentration, it was added at a final concentration of 1000 mM for all the cases. Further, presence or absence of pyrophosphate production was also verified for the Thermus-derived MetRS and TyrRS by using the AARS activity measurement method described in 10. and standard solutions of the various amino acids as test samples. The reaction mixtures were prepared so that the final concentrations of the amino acids were 200 μM. Hydroxylamine was added at a final concentration of 400 mM.
(§6) Detection or no detection of the activity in the reaction mixtures containing a combination of each AARS and amino acid are shown in Table 2. The symbol + indicates detection of the activity, and − indicates no detection of the activity.

[2] = target: T2, Thermotoga-derived HisRS (Thermotoga maritima, UniProt Q9X0H5); settings: Tyr 1 mM, other amino acids 5 mM; hydroxylamine 1000 mM; HisRS 0.1 mg/ml; 30° C.
T2 construct: His tag (C); made in house; host or cells: Escherichia coli BL21 (DE3)
T2 sequence (Q9X0H5 1-420): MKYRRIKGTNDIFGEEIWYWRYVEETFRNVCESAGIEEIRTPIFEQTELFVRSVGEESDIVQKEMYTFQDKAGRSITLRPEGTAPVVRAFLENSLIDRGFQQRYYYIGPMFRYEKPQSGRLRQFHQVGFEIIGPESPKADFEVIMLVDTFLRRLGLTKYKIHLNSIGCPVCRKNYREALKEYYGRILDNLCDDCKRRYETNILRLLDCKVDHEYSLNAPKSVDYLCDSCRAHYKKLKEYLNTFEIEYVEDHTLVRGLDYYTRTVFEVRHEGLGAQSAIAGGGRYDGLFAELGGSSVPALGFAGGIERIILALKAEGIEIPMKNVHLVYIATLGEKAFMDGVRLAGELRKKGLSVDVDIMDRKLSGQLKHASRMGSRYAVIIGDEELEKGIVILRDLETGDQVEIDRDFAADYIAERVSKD
Procedure: as §1, §2, §3, §4, §5, §6

[3] = target: T3, Thermotoga-derived ProRS (Thermotoga maritima, UniProt Q9WYY4); settings: Tyr 1 mM, other amino acids 5 mM; hydroxylamine 1000 mM; ProRS 0.2 mg/ml; 30° C.
T3 construct: His tag (C); made in house; host or cells: Escherichia coli BL21 (DE3)
T3 sequence (Q9WYY4 1-577): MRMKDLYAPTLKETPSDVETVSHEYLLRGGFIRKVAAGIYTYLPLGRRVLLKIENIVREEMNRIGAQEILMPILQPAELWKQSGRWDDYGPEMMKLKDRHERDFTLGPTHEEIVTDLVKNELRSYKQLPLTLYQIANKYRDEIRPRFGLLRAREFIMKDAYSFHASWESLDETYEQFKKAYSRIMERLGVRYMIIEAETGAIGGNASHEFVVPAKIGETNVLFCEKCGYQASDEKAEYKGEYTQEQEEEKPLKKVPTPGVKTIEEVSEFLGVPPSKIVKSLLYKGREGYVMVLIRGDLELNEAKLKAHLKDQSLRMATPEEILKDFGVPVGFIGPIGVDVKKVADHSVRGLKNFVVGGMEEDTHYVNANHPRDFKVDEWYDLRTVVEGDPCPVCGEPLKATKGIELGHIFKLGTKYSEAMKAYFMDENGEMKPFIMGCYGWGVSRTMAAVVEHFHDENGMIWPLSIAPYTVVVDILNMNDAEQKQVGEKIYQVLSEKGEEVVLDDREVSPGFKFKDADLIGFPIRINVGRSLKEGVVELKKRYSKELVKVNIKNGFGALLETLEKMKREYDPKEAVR
Procedure: as §1, §2, §3, §4, §5, §6

Compound | Detection of the activity (pyrophosphate generation), CysRS [1] | Detection of the activity (pyrophosphate generation), HisRS [2] | Detection of the activity (pyrophosphate generation), ProRS [3]
C[C@H](N)C(=O)O [Ala, L-alanine] | − | − | −
N=C(N)NCCC[C@H](N)C(=O)O [Arg, L-arginine] | − | − | −
NC(=O)C[C@H](N)C(=O)O [Asn, L-asparagine] | − | − | −
N[C@@H](CC(=O)O)C(=O)O [Asp, L-aspartic acid] | − | − | −
N[C@@H](CS)C(=O)O [Cys, L-cysteine] | + | − | −
NC(=O)CC[C@H](N)C(=O)O [Gln, L-glutamine] | − | − | −
N[C@@H](CCC(=O)O)C(=O)O [Glu, L-glutamic acid] | − | − | −
NCC(=O)O [Gly, glycine] | − | − | −
N[C@@H](Cc1c[nH]cn1)C(=O)O [His, L-histidine] | − | + | −
CC[C@H](C)[C@H](N)C(=O)O [Ile, L-isoleucine] | − | − | −
CC(C)C[C@H](N)C(=O)O [Leu, L-leucine] | − | − | −
NCCCC[C@H](N)C(=O)O [Lys, L-lysine] | − | − | −
CSCC[C@H](N)C(=O)O [Met, L-methionine] | − | − | −
N[C@@H](Cc1ccccc1)C(=O)O [Phe, L-phenylalanine] | − | − | −
O=C(O)[C@@H]1CCCN1 [Pro, L-proline] | − | − | +
N[C@@H](CO)C(=O)O [Ser, L-serine] | − | − | −
C[C@@H](O)[C@H](N)C(=O)O [Thr, L-threonine] | − | − | −
N[C@@H](Cc1c[nH]c2ccccc12)C(=O)O [Trp, L-tryptophan] | − | − | −
N[C@@H](Cc1ccc(O)cc1)C(=O)O [Tyr, L-tyrosine] | − | − | −
CC(C)[C@H](N)C(=O)O [Val, L-valine] | − | − | −
